Results: patent US20260325685A1, “Radiopharmaceutical Compositions Targeting Carbonic Anhydrase IX and Uses Thereof” (RayzeBio, Inc., priority 2023, published 2026)
Where two headings read alike, the source gives them in different places.

Experiments:
human CA-IX = target: T1, human CA-IX (Homo sapiens, UniProt Q16790); test: Surface Plasmon Resonance (SPR) binding kinetics to recombinant human CA-IX (Biacore 8K, single-cycle kinetics, 1:1 binding model)
T1 construct: purchased Acro CA9-H82E3
Protocol: (§1) G1. Surface Plasmon Resonance Assay Conditions for hCA-IX and hCA-XII
(§2) Surface Plasmon Resonance (SPR) experiments were conducted on a Biacore 8K instrument (Cytiva, Marlborough, MA) to determine the binding kinetics of the compound to recombinant human CA-IX (Acro, CA9-H82E3) and CA-XII (Creative BioMart, CA12-261H) proteins. The ligands were diluted to 10 μg/mL in PBS-P+ buffer (20 mM phosphate buffer, pH 7.4, with 2.7 mM KCl, 137 mM NaCl, and 0.05% Tween 20) and captured on Series S Streptavidin Sensor Chips (Cytiva, 29699621) to 1200-1800 response units (RU) using a flow rate of 5 μL/min and injection times of 180 seconds for human CA-IX and 75 seconds for human CA-XII. Analyte binding was evaluated using a single-cycle kinetics method over 9 analyte concentrations (100-0.39 nM) in PBS-P+ buffer with 1% DMSO using a 50 μL/min. flow rate, 120 second association time, and 1200 second dissociation time. The flow cell temperature was set to 25° C. Analyte binding curves were fit to a 1:1 binding kinetic model in Biacore Insight Evaluation software (version 4.0.8.20368) following reference flow cell subtraction and DMSO correction to derive the association and dissociation binding constants.

human CA-XII = target: T2, human CA-XII (Homo sapiens, UniProt O43570); test: Surface Plasmon Resonance (SPR) binding kinetics to recombinant human CA-XII (Biacore 8K, single-cycle kinetics, 1:1 binding model)
T2 construct: purchased Creative BioMart CA12-261H
Protocol: as §1, §2

[1] = Chelated Metal: Lu-175; SPR, 25° C., pH 7.4; read-out: CAIX KD
[2] = Chelated Metal: Lu-175, 25° C., pH 7.4, read-out: CAXII KD

T2 sequence (O43570 25-354): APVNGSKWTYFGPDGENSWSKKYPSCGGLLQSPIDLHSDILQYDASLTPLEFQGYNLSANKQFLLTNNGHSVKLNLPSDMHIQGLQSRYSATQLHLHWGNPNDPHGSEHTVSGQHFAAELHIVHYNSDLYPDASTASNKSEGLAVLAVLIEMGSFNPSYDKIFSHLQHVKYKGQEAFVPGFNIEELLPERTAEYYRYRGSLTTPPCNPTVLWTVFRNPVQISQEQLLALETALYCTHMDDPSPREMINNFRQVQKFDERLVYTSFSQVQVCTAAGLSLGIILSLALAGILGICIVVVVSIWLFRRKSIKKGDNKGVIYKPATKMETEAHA

| Structure (SMILES) | Kd (human CA-IX; [1]) | Kd (human CA-XII; [2]) | Kd (human CA-IX; read-out: CAIX KD; Chelated Metal: Lu-175; SPR, 25° C., pH 7.4) | Kd (human CA-XII; read-out: CAXII KD, Chelated Metal: Lu-175, 25° C., pH 7.4) |
| --- | --- | --- | --- | --- |
| CC(CCC(=O)N[C@@H](CC(=O)N[C@@H](CC(=O)N1CCN(C(=O)[C@H](CCC(=O)NCCOCCOCCOCCOCCOCCOCCOCCOCCC(=O)N[C@@H](CCCCNC(=O)CCCc2ccc(Cl)cc2)C(=O)O)NC(=O)CN2CCN(CC(=O)O)CCN(CC(=O)O)CCN(CC(=O)O)CC2)C[C@H]1C(=O)NCCn1cc(C23CC(C(=O)Nc4nnc(S(N)(=O)=O)s4)(C2)C3)nn1)C(=O)O)C(=O)O)(c1ccc(O)cc1)c1ccc(O)cc1.[Lu+3] (racemic) [Compound 125.1] | 2.5 to 10 nM | > 10 nM | – | – |
| CC(CCC(=O)N[C@@H](CC(=O)N[C@@H](CC(=O)N1CCN(C(=O)[C@H](CCC(=O)NCCOCCOCCOCCOCCOCCOCCOCCOCCC(=O)N[C@@H](CCCCNC(=O)CCCc2ccc(I)cc2)C(=O)O)NC(=O)CN2CCN(CC(=O)O)CCN(CC(=O)O)CCN(CC(=O)O)CC2)C[C@H]1C(=O)NCCn1cc(C23CC(C(=O)Nc4nnc(S(N)(=O)=O)s4)(C2)C3)nn1)C(=O)O)C(=O)O)(c1ccc(O)cc1)c1ccc(O)cc1.[Lu+3] (racemic) [Compound 125] | – | – | 1 to 2.5 nM | > 10 nM |
| CC(CCCC(=O)N1CCC(C(N)=O)(C(=O)NCC(=O)NC2(C(=O)NCCn3cc(C45CC(C(=O)Nc6nnc(S(N)(=O)=O)s6)(C4)C5)nn3)CCN(C(=O)CN3C[C@@H]4CN(C(=O)CN5CCN(CC(=O)O)CCN(CC(=O)O)CCN(CC(=O)O)CC5)C[C@@H]4C3)CC2)CC1)(c1ccc(O)cc1)c1ccc(O)cc1.[Lu+3] (racemic) [Compound 129.6] | < 1 nM | > 10 nM | – | – |
| CC(CCCC(=O)N1CCC(C(=O)O)(C(=O)NCC(=O)NC2(C(=O)NCCn3cc(C45CC(C(=O)Nc6nnc(S(N)(=O)=O)s6)(C4)C5)nn3)CCN(C(=O)CN3CCN(CC(=O)O)CCN(CC(=O)O)CCN(CC(=O)O)CC3)CC2)CC1)(c1ccc(O)cc1)c1ccc(O)cc1.[Lu+3] (single isomer, unassigned) [Compound 117.1] | < 1 nM | > 10 nM | – | – |
| CC(CCCC(=O)N1CCC(C(=O)O)(C(=O)NCC(=O)NC2(C(=O)NCCn3cc(C45CC(C(=O)Nc6nnc(S(N)(=O)=O)s6)(C4)C5)nn3)CCN(C(=O)CN3CCN(CC(=O)O)CCN(CC(=O)O)CCN(CC(=O)O)CC3)CC2)CC1)(c1ccc(O)cc1)c1ccc(O)cc1.[Lu+3] (single isomer, unassigned) [Compound 117.4] | 1 to 2.5 nM | > 10 nM | – | – |
| CC(CCC(=O)N[C@@H](CC(=O)N[C@@H](CC(=O)N[C@@H](CCCCn1cc(C23CCC(C(=O)Nc4nnc(S(N)(=O)=O)s4)(CC2)C3)nn1)C(=O)NCCOCCOCCNC(=O)CN1CCN(CC(=O)O)CCN(CC(=O)O)CCN(CC(=O)O)CC1)C(=O)O)C(=O)O)(c1ccc(O)cc1)c1ccc(O)cc1.[Lu+3] [Compound 100.1] | < 1 nM | 1 to 2.5 nM | – | – |
| CC(CCC(=O)N[C@@H](CC(=O)N[C@@H](CC(=O)N[C@@H](CCCn1cc(C23CC(C(=O)Nc4nnc(S(N)(=O)=O)s4)(C2)C3)nn1)C(=O)NCCOCCOCCNC(=O)CN1CCN(CC(=O)O)CCN(CC(=O)O)CCN(CC(=O)O)CC1)C(=O)O)C(=O)O)(c1ccc(O)cc1)c1ccc(O)cc1.[Lu+3] [Compound 100.2] | 1 to 2.5 nM | > 10 nM | – | – |
| CC(CCC(=O)N[C@@H](CC(=O)N[C@@H](CC(=O)N[C@@H](CCCn1cc(C2CCC(C(=O)Nc3nnc(S(N)(=O)=O)s3)CC2)nn1)C(=O)NCCOCCOCCNC(=O)CN1CCN(CC(=O)O)CCN(CC(=O)O)CCN(CC(=O)O)CC1)C(=O)O)C(=O)O)(c1ccc(O)cc1)c1ccc(O)cc1.[Lu+3] (some centres unmarked) [Compound 100.3] | < 1 nM | 2.5 to 10 nM | – | – |
| Cc1cc(-c2cn(CCNC(=O)[C@@H]3CN(C(=O)CN4CCN(CC(=O)O)CCN(CC(=O)O)CCN(CC(=O)O)CC4)CCN3C(=O)C[C@H](NC(=O)C[C@H](NC(=O)CCC(C)(c3ccc(O)cc3)c3ccc(O)cc3)C(=O)O)C(=O)O)nn2)ccc1C(=O)Nc1nnc(S(N)(=O)=O)s1.[Lu+3] [Compound 107.40] | – | < 1 nM | – | – |
